Patent US5103018A, “Mitomycin derivatives” (Kyowa Hakko Kogyo Kabushiki Kaisha, priority 1986, dated 1992)
Converted amounts (≈) assume the structure as drawn.

What was measured:
Sarcoma 180 solid tumour = test: animal or person; type: in vivo, mice (ddy strain); settings: for ED50: Mus musculus, Sarcoma-180, ip, 168 h, read-out: ED50 ip
Text: (§1) Certain compounds were selected from Compounds I. The following Table 4 indicates anti-tumour activity against Sarcoma 180 solid tumour (ED50), acute toxicity (LD50) and effects on the peripheral leucocytes (WBC4000) of each compound.
(1) Effect against Sarcoma 180 solid tumour:
5×10^6 cells of Sarcoma 180 solid tumour cells were abdominally implanted into male mice of ddy strain. 7 days after this, ascites cells were sampled. The cells were washed once with a sterilized physiological solution of sodium chloride and were used to prepare a cell suspension containing 5×10^7 cells per ml. On each occasion, 0.1 ml of the cell suspension was subcutaneously implanted into the right armpit of a male mouse (ddy strain; body weight 20±2 g). 24 hours after the implantation of the tumour cells, the test compound which was dissolved in a physiological solution of sodium chloride with or without addition of Tween 80 was abdominally administered to each mouse of a group consisting of 5 animals at a does of 0.1-0.2 ml. The anti-tumour activity was determined as follows:
7 days after the implantation, the major axis (a) and the minor axis (b) of the tumour were measured to calculate a value of "a×b^2 /2" which corresponds to the volume of the tumour. The anti-tumour activity was expressed by T/C viz. the ratio of the volume of the tumours (T) of the group of animals administered with the test compound to the corresponding volume of tumours (C) of the untreated animals.
(2) Determination of ED50 :
The term ED50 denotes the administered amount needed for reducing the volume of Sarcoma 180 solid tumours in the animals to 50% on the basis of the corresponding volume of Sarcoma 180 solid tumours in control (untreated) animals.
On graph paper, T/C was indicated by an arithmetic scale on the longitudinal axis and the administered amount of test compound was indicated by a logarithmic scale on the lateral axis.

in vivo = type: in vivo, mice (ddy strain); settings: mouse, in vivo, ip; read-out: (WBC4000/ED50)* = (WBC4000/ED50)/[(WBC4000/ED50) of MMC1]
Method: as §1
(4) Effect upon the number of the peripheral leucocytes:
Sarcoma 180 solid tumour cells (5×10^6) were subcutaneously implanted into the right armpit of each mouse (body weight 20±2 g) of a group consisting of 5 male mice (ddy strain). 24 hours after implantation,a test compound was abdominally administered to each mouse. 4 days later, blood (each 0.02 ml) was collected from the suborbital plexus vein of each tumour-carrying mouse. The collected sample of blood was dispersed in 9.98 ml of Cell-kit Seven solution. One drop of saponin solution was added to the sample to dissolve erythrocytes and then a microcell counter was used to measure the number of leucocytes. On graph paper, the number of leucocytes was indicated on the y-axis by an arithmetic scale and the does of the test compound was indicated on the x-axis by a logarithmic scale.
The relationship between the number of peripheral leucocytes and the dosage of the test compound was plotted to obtain WBC4000 viz. the dosage corresponding to […] per mm^3 (about half of the number of leucocytes of normal mice).

Acute toxicity = type: in vivo, mice (ddy); settings: mouse, in vivo, ip; for LD50 at 336 h: ddy mice, single i.p., 14 days, Behren Korber's method; for selectivity ratio: read-out: (C.I.)* = (LD50/ED50)/[(LD50/ED50) of MMC1]
Method: as §1
Each animal of the test group consisting of 5 ddy mice was once administered (i.p.) with a test compound. […] The LD50 was determined by Behren Korber's method.

[1] = tested on: Staphylococcus aureus ATCC 6583P; test: Minimum inhibitory concentration, agar dilution method, SA; type: cell-based; settings: Staphylococcus aureus, ATCC6583P, pH 7, read-out: minimum inhibitory concentration, SA
Text: (§2) Certain Compounds I were selected. Table 3 indicates their anti-bacterial activities in terms of their minimum inhibitory concentration (μg/ml), determined by the agar dilution method effected at a pH of 7.0. In this table, the microorganisms used are abbreviated as follows:
SA: Staphylococcus aureus ATCC 6583P

[2] = tested on: Streptococcus faecalis ATCC 10541; test: Minimum inhibitory concentration, agar dilution method, SF; type: cell-based; settings: Enterococcus faecalis, ATCC10541, pH 7, read-out: minimum inhibitory concentration, SF
Text: as §2
SF: Streptococcus faecalis ATCC 10541

For “7-N-[2-[[2-[[(1S)-5-amino-1-carboxypentyl]carbamoyl]ethyl]dithio]ethyl]mitomycin C [Compound 23]”, the ED50 ip (Sarcoma 180 solid tumour; ddy mice, i.p. 24 h after implantation, 50% reduction of tumour volume at day 7) was 6.2 mg/kg.
Work on `CC1=C(NCCSSCCNC(=O)C[C@H](N)C(=O)O)C(=O)C2=C(C1=O)N1C[C@H]3[C@H](N3C)[C@]1(O)[C@H]2COC(N)=O` (stereo partly drawn) [Compound 10, 7-N-[2-[[2-(N^4 -L-asparagino)ethyl]dithio]ethyl]mitomycin D] yielded a selectivity ratio (in vivo) of 2.5, an LD50 at 336 h (Acute toxicity) of 75 mg/kg and a selectivity ratio (Acute toxicity) of 2.19. For the same compound, the ED50 (Sarcoma 180 solid tumour) was 13 mg/kg.
With `CC1=C(NCCSSCCNC(=O)CC[C@@H](N)C(=O)O)C(=O)C2=C(C1=O)N1C[C@H]3[C@H](N3C)[C@]1(O)[C@H]2COC(N)=O` (stereo partly drawn) [Compound 11, 7-N-[2-[[2-(N^5 -D-glutamino)ethyl]dithio]ethyl]mitomycin D] the selectivity ratio (in vivo) was 1.64, the LD50 at 336 h (Acute toxicity) was 75 mg/kg and the selectivity ratio (Acute toxicity) was 1.59. For the same compound, the ED50 (Sarcoma 180 solid tumour) was 16.9 mg/kg.
Compound `CC1=C(NCCSSCCNC(=O)[C@@H]2CCC(=O)N2)C(=O)C2=C(C1=O)N1C[C@H]3[C@H](N3C)[C@]1(O)[C@H]2COC(N)=O` (stereo partly drawn) [Compound 12, 7-N-[2-[[2-(L-pyroglutamylamino)ethyl]dithio]ethyl]mitomycin D] has a selectivity ratio (in vivo) of 5.57, an LD50 at 336 h (Acute toxicity) of 75 mg/kg and a selectivity ratio (Acute toxicity) of 1.8. It also gave an ED50 (Sarcoma 180 solid tumour) of 18.4 mg/kg.
With `CO[C@@]12[C@H](COC(N)=O)C3=C(C(=O)C(C)=C(NCCSSCCNC(=O)[C@@H]4CCCN4)C3=O)N1C[C@@H]1N[C@@H]12` [Compound 13, 7-N-[2-[[2-(L-prolylamino)ethyl]dithio]ethyl]mitomycin C] the selectivity ratio (in vivo) was 2.3, the LD50 at 336 h (Acute toxicity) was 30 mg/kg and the selectivity ratio (Acute toxicity) was 1.17. The ED50 (Sarcoma 180 solid tumour) was 12.2 mg/kg.
For `CO[C@@]12[C@H](COC(N)=O)C3=C(C(=O)C(C)=C(NCCSSCCNC(=O)CCC(=O)Oc4c(C)c(C)c5c(c4C)CC[C@@](C)(CCC[C@H](C)CCC[C@H](C)CCCC(C)C)O5)C3=O)N1C[C@@H]1N[C@@H]12` [Compound 16], the selectivity ratio (in vivo) was 1.2, the LD50 at 336 h (Acute toxicity) was over 100 mg/kg and the selectivity ratio (Acute toxicity) was over 0.37. The ED50 (Sarcoma 180 solid tumour) was 95.9 mg/kg.
`CC1=C(NCCSSCCNC=O)C(=O)C2=C(C1=O)N1C[C@H]3[C@H](N3C)[C@]1(O)[C@H]2COC(N)=O` (stereo partly drawn) [Compound 18, 7-N-[2-[(2-formamidoethyl)dithio]ethyl]mitomycin D] gave a selectivity ratio (in vivo) of 3.89, an LD50 at 336 h (Acute toxicity) of 52.5 mg/kg and a selectivity ratio (Acute toxicity) of 1.94. For the same compound, the ED50 (Sarcoma 180 solid tumour) was 10.6 mg/kg.
`CO[C@@]12[C@H](COC(N)=O)C3=C(C(=O)C(C)=C(NCCSSCCNC(=O)C(F)(F)F)C3=O)N1C[C@@H]1N[C@@H]12` [Compound 19, 7-N-[2-[(2-trifluoroacetamidoethyl)dithio]ethyl]mitomycin C] showed a selectivity ratio (in vivo) of over 0.96, an LD50 at 336 h (Acute toxicity) of 9.4 mg/kg and a selectivity ratio (Acute toxicity) of 0.51. For the same compound, the ED50 (Sarcoma 180 solid tumour) was 8.7 mg/kg.
Work on `CC1=C(NCCSSCCNC(=O)C(F)(F)F)C(=O)C2=C(C1=O)N1C[C@H]3[C@H](N3C)[C@]1(O)[C@H]2COC(N)=O` (stereo partly drawn) [Compound 20, 7-N-[2-[(2-trifluoroacetamidoethyl)dithio]ethyl]mitomycin D] yielded a selectivity ratio (in vivo) of 4.4, an LD50 at 336 h (Acute toxicity) of 30 mg/kg and a selectivity ratio (Acute toxicity) of 0.93. For the same compound, the ED50 (Sarcoma 180 solid tumour) was 11.6 mg/kg.
Work on `CO[C@@]12[C@H](COC(N)=O)C3=C(C(=O)C(C)=C(NCCSSCCC(=O)N[C@@H](CCCN)C(=O)O)C3=O)N1C[C@@H]1N[C@@H]12` [Compound 22, 7-N-[2-[[2-[[(1S)-4-amino-1-carboxybutyl]carbamoyl]ethyl]dithio]ethyl]mitomycin C] yielded an ED50 (Sarcoma 180 solid tumour) of 5 mg/kg.
Work on `CC1=C(NCCSSCCC(=O)N[C@@H](CCCN)C(=O)O)C(=O)C2=C(C1=O)N1C[C@H]3[C@H](N3C)[C@]1(O)[C@H]2COC(N)=O` (stereo partly drawn) [Compound 24, 7-N-[2-[[2-[[(1S)-4-amino-1-carboxybutyl]carbamoyl]ethyl]dithio]ethyl]mitomycin D] yielded a selectivity ratio (in vivo) of 2.02, an LD50 at 336 h (Acute toxicity) of over 100 mg/kg and a selectivity ratio (Acute toxicity) of over 1.53. For the same compound, the ED50 (Sarcoma 180 solid tumour) was 31.2 mg/kg.
`CC1=C(NCCSSCCC(=O)N[C@@H](CCCCN)C(=O)O)C(=O)C2=C(C1=O)N1C[C@H]3[C@H](N3C)[C@]1(O)[C@H]2COC(N)=O` (stereo partly drawn) [Compound 25, 7-N-[2-[[2-[[(1S)-5-amino-1-carboxypentyl]carbamoyl]ethyl]dithio]ethyl]mitomycin D] gave a selectivity ratio (in vivo) of 1.59, an LD50 at 336 h (Acute toxicity) of over 100 mg/kg and a selectivity ratio (Acute toxicity) of over 1.02. It also gave an ED50 (Sarcoma 180 solid tumour) of 46.6 mg/kg.
With `CCOC(=O)CNC(=O)CCSSCCNC1=C(C)C(=O)C2=C(C1=O)[C@@H](COC(N)=O)[C@@]1(OC)[C@H]3N[C@H]3CN21` [Compound 29, 7-N-[2-[[2-[[(ethoxycarbonyl)methyl]carbamoyl]ethyl]dithio]ethyl]mitomycin C] the selectivity ratio (in vivo) was 2.9, the LD50 at 336 h (Acute toxicity) was 33.8 mg/kg and the selectivity ratio (Acute toxicity) was 1.77. For the same compound, the ED50 (Sarcoma 180 solid tumour) was 9.4 mg/kg.
With `CCOC(=O)CNC(=O)C(C)SSCCNC1=C(C)C(=O)C2=C(C1=O)[C@@H](COC(N)=O)[C@@]1(OC)[C@H]3N[C@H]3CN21` (stereo partly drawn) [Compound 30, 7-N-[2-[[1-[[(ethoxycarbonyl)methyl]carbamoyl]ethyl]dithio]ethyl]mitomycin C] the ED50 (Sarcoma 180 solid tumour) was 10.3 mg/kg.
With `CO[C@@]12[C@H](COC(N)=O)C3=C(C(=O)C(C)=C(NCCSSCCC(=O)NCCc4ccc(O)c(O)c4)C3=O)N1C[C@@H]1N[C@@H]12` [Compound 31, 7-N-[2-[[2-[[2-(3,4-dihydroxyphenyl)ethyl]carbamoyl]ethyl]dithio]ethyl]mitomycin C] the selectivity ratio (in vivo) was 2.28, the LD50 at 336 h (Acute toxicity) was 26.3 mg/kg and the selectivity ratio (Acute toxicity) was 1.15. For the same compound, the ED50 (Sarcoma 180 solid tumour) was 7.1 mg/kg.
For `CO[C@@]12[C@H](COC(N)=O)C3=C(C(=O)C(C)=C(NCCSSCCOC(=O)/C=C(C)/C=C/C=C(C)/C=C/C4=C(C)CCCC4(C)C)C3=O)N1C[C@@H]1N[C@@H]12` [Compound 35, 7-N-[2-[[2-(retinoyloxy)ethyl]dithio]ethyl]mitomycin C], the MIC [1] was 5 mg/L (≈ 6.64 µM) and the MIC [2] was 10 mg/L (≈ 13.3 µM).
With `CO[C@@]12[C@H](COC(N)=O)C3=C(C(=O)C(C)=C(NCCSSCCS(=O)(=O)O)C3=O)N1C[C@@H]1N[C@@H]12` [Compound 36, 7-N-[2-[(2-sulfoethyl)dithio]ethyl]mitomycin C] the ED50 (Sarcoma 180 solid tumour) was 7 mg/kg.
`CO[C@@]12[C@H](COC(N)=O)C3=C(C(=O)C(C)=C(NCCSSCc4c[nH]c(=O)[nH]c4=O)C3=O)N1C[C@@H]1N[C@@H]12` [Compound 37, 7-N-[2-[[(2,4-dioxopyrimidin-5-yl)methyl]dithio]ethyl]mitomycin C] showed an ED50 (Sarcoma 180 solid tumour) of 16.4 mg/kg.
For `CC1=C(NCCSSCc2c[nH]c(=O)[nH]c2=O)C(=O)C2=C(C1=O)N1C[C@H]3[C@H](N3C)[C@]1(O)[C@H]2COC(N)=O` (stereo partly drawn) [Compound 38, 7-N-[2-[[(2,4-dioxopyrimidin-5-yl)methyl]dithio]ethyl]mitomycin D], the selectivity ratio (in vivo) was over 8.71, the LD50 at 336 h (Acute toxicity) was over 150 mg/kg and the selectivity ratio (Acute toxicity) was over 2.26. The ED50 (Sarcoma 180 solid tumour) was 24.5 mg/kg.
`CC1=C(NCCSSCc2cn([C@H]3C[C@H](O)[C@@H](CO)O3)c(=O)[nH]c2=O)C(=O)C2=C(C1=O)N1C[C@H]3[C@H](N3C)[C@]1(O)[C@H]2COC(N)=O` (stereo partly drawn) [Compound 40, 7-N-[2-[[(2'-deoxyuridin-5-yl)methyl]dithio]ethyl]mitomycin D] gave a selectivity ratio (in vivo) of 0.95, an LD50 at 336 h (Acute toxicity) of at least 200 mg/kg and a selectivity ratio (Acute toxicity) of 1.22. It also gave an ED50 (Sarcoma 180 solid tumour) of 104 mg/kg.
